Test results from US20050187221A1, “Method of treating ischemia reperfusion injury” (Japan Tobacco Inc., priority 2003, published 2005).
Where a name gives a salt, the structure may show the parent alone.

Columns and labels:
IL-1β = test: Tissue level of IL-1β in the myocardium after reperfusion (ELISA); assay type: ex vivo (isolated Langendorff-perfused heart after in vivo dosing), Sprague-Dawley rats; conditions: 10 mg/kg intraperitoneally; after 60 min reperfusion; mean±SEM; C group 3700±700, not statistically significantly different
Experimental: (§1) Sixteen Sprague-Dawley rats (300 g, male) were divided into a control group (“C group,” n=8) and a group administered (−)-ethyl N-{3,5-dichloro-2-hydroxy-4-[2-(4-methylpiperazin-1-yl)ethoxy]benzoyl}-L-phenylalaninate dihydrochloride (“J group,” n=8). All rats were anesthesized by intraperitoneal injection of sodium pentobarbital (50 mg/kg), and either (a) 0.5 mL of saline (C group) or (b) 10 mg/kg of (−)-ethyl N-{3,5-dichloro-2-hydroxy-4-[2-(4-methylpiperazin-1-yl)ethoxy]benzoyl}-L-phenylalaninate dihydrochloride dissolved in 5% mannitol (J group) was administered intraperitoneally to the rats. Anticoagulation was ensured by the intraperitoneal administration of 200 USP units of heparin. […]
(§2) After stabilization, heart rate (HR), left ventricular developed pressure (LVDP), maximum dP/dt (maximum dP/dt), and coronary flow (CF) were measured with LV diastolic pressure stabilized at 10 mm Hg. […] HR, LVDP, maximum dP/dt, and CF were continuously measured after reperfusion and analyzed using a Polygraph System (Nihon Kouden, Japan).
(§3) After 60 minutes of reperfusion, frozen sections of the hearts were made and stored at −80° C. for further assessment. […] The concentrations of tissue inflammatory cytokines were measured using ELISA kits (TNF-α, IL-1β, and IL-6: Biosource International, California; and IL-8: Immuno-Biological Laboratories, Gunma, Japan) according to the manufacturer's recommendation. […]

[1] = tested on: cardiac myocytes (CPK leakage); test: Creatine phosphokinase (CPK) leakage into the coronary effluent after reperfusion; assay type: ex vivo (isolated perfused hearts from dosed rats), Sprague-Dawley rats; conditions: 10 mg/kg intraperitoneally; coronary effluent for 60 minutes after reperfusion; mean±SEM; C group 140±61, p<0.05
Experimental: as §1
as §2, with “Japan). […]” for “Japan).”
There were significant differences between the two groups, however, following global ischemia and reperfusion. FIGS. 1 and 2 depict the cardiac function (as measured by LVDP and maximum dP/dt) after ischemia reperfusion between the C and J groups. For the following parameters, data are expressed as mean±standard error of the mean (SEM). […]

[2] = tested on: hearts of Sprague-Dawley rats (myocardial ischemia reperfusion injury); test: Cardiac function of isolated Langendorff-perfused rat hearts after 30 min global ischemia and 60 min reperfusion; assay type: ex vivo
Experimental: Sixteen Sprague-Dawley rats (300 g, male) were divided into a control group (“C group,” n=8) and a group administered (−)-ethyl N-{3,5-dichloro-2-hydroxy-4-[2-(4-methylpiperazin-1-yl)ethoxy]benzoyl}-L-phenylalaninate dihydrochloride (“J group,” n=8). All rats were anesthesized by intraperitoneal injection of sodium pentobarbital (50 mg/kg), and either (a) 0.5 mL of saline (C group) or (b) 10 mg/kg of (−)-ethyl N-{3,5-dichloro-2-hydroxy-4-[2-(4-methylpiperazin-1-yl)ethoxy]benzoyl}-L-phenylalaninate dihydrochloride dissolved in 5% mannitol (J group) was administered intraperitoneally to the rats. Anticoagulation was ensured by the intraperitoneal administration of 200 USP units of heparin.
Ten minutes after the administration of heparin and either (a) saline (C group) or (b) 10 mg/kg of (−)-ethyl N-{3,5-dichloro-2-hydroxy-4-[2-(4-methylpiperazin-1-yl)ethoxy]benzoyl}-L-phenylalaninate dihydrochloride dissolved in 5% mannitol (J group), the hearts of the rats were excised and perfused with modified Krebs-Henseleit buffer (120.0 mM NaCl, 4.5 mM KCl, 20.0 mM NaHCO3, 1.2 mM KH2PO4, 1.2 MgCl2, 2.5 mM CaCl2, and 10.0 mM glucose: gassed with 95% O2+5% CO2 to obtain a pH of 7.4 at 37° C.) at the pressure equal to 1 m H2O by means of a Langendorff apparatus. A thin-wall latex balloon was inserted into the left ventricle through the left atrium to monitor left ventricular pressure and to control left ventricular volume.
After stabilization, heart rate (HR), left ventricular developed pressure (LVDP), maximum dP/dt (maximum dP/dt), and coronary flow (CF) were measured with LV diastolic pressure stabilized at 10 mm Hg. The hearts were subjected to global ischemia at 37° C. for 30 minutes, followed by 60 minutes of reperfusion. The balloon was deflated during ischemia, and the hearts were not paced during reperfusion. HR, LVDP, maximum dP/dt, and CF were continuously measured after reperfusion and analyzed using a Polygraph System (Nihon Kouden, Japan).
There were significant differences between the two groups, however, following global ischemia and reperfusion. FIGS. 1 and 2 depict the cardiac function (as measured by LVDP and maximum dP/dt) after ischemia reperfusion between the C and J groups. For the following parameters, data are expressed as mean±standard error of the mean (SEM). The difference in the data on functional recoveries were determined with one-way repeated measure ANOVA. The difference in the data on CPK leakage and tissue cytokine concentrations were determined with unpaired Student's t test. A p value of less than 0.05 was considered statistically significant.

TNF-α = test: Tissue level of TNF-α in the myocardium after reperfusion (ELISA); parameters: species or system Sprague-Dawley rats; conditions: 10 mg/kg intraperitoneally; after 60 min reperfusion; mean±SEM; C group 550±80, p<0.05
Experimental: as §1, §2, §3

IL-6 = test: Tissue level of IL-6 in the myocardium after reperfusion (ELISA); assay type: ex vivo (isolated Langendorff-perfused heart, dosed in vivo), Sprague-Dawley rats; conditions: 10 mg/kg intraperitoneally; after 60 min reperfusion; mean±SEM; C group 300±80, p<0.05
Experimental: as §1, §2, §3

IL-8 = test: Tissue level of IL-8 in the myocardium after reperfusion (ELISA); assay type: ex vivo (isolated Langendorff-perfused heart), Sprague-Dawley rats; conditions: 10 mg/kg intraperitoneally; after 60 min reperfusion; mean±SEM; C group 240±40, p<0.05
Experimental: as §1, §2, §3

In the case of CCOC(=O)[C@H](Cc1ccccc1)NC(=O)c1cc(Cl)c(OCCN2CCN(C)CC2)c(Cl)c1O [(−)-ethyl N-{3,5-dichloro-2-hydroxy-4-[2-(4-methylpiperazin-1-yl)ethoxy]benzoyl}-L-phenylalaninate dihydrochloride], the “tissue level of IL-1β in the myocardium after reperfusion” value (IL-1β) is reported as 2600±200 pg/mg tissue, the “CPK leakage of the coronary effluent” value [1] is reported as 2.9±2.0 IU/60 minutes and the “peak value of percent recovery of LVDP after reperfusion” value ([2]; 10 mg/kg intraperitoneally 10 min before heart excision, 30 min global ischemia at 37° C., 60 min reperfusion, percentage of basal LVDP, mean±SEM, C group 39±6%, p<0.05) is reported as 79±5%. The “peak value of percent recovery of maximum dP/dt after reperfusion” value ([2]; 10 mg/kg intraperitoneally 10 min before heart excision, 30 min global ischemia, 60 min reperfusion, percentage of basal maximum dP/dt, mean±SEM, C group 54±7%, p<0.05) was 80±4%, the “percent recovery of LVDP versus C group over time” value ([2]; 10 mg/kg intraperitoneally, at 20, 30, 40, 50, and 60 minutes after reperfusion) was “Significant improvements” and the “percent recovery of max dP/dt versus C group over time” value ([2]; 10 mg/kg intraperitoneally, at 30, 40, 50, and 60 minutes after reperfusion) was “significant improvement”. The “tissue level of TNF-α in the myocardium after reperfusion” value (TNF-α) was 240±30 pg/mg tissue, the “tissue level of IL-6 in the myocardium after reperfusion” value (IL-6) was 60±7 pg/mg tissue and the “tissue level of IL-8 in the myocardium after reperfusion” value (IL-8) was 68±19 pg/mg tissue.
